In PubChem BioAssay (NCI):
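Growth conditions: 96-well plates. Treatment: test compound, 48 hours, 5 concentrations. Analysis: linear interpolation between bracketing concentrations; unreached endpoints set to highest concentration. GI50: concentration for 50% inhibition of growth. The concentration for full growth arrest is given as TGI.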

What was measured:
Assay in all cases: DTP human tumour cell line panel, 48 h
NCI-H23 lung = system: NCI-H23 lung
NCI-H460 lung = system: NCI-H460 lung
NCI-H522 lung = system: NCI-H522 lung
NCI/ADR-RES ovarian = system: NCI/ADR-RES ovarian
OVCAR-3 ovarian = system: OVCAR-3 ovarian
OVCAR-4 ovarian = system: OVCAR-4 ovarian
OVCAR-5 ovarian = system: OVCAR-5 ovarian
OVCAR-8 ovarian = system: OVCAR-8 ovarian
PC-3 prostate = system: PC-3 prostate
RPMI-8226 leukemia = system: RPMI-8226 leukemia
RXF 393 renal = system: RXF 393 renal
SF-268 CNS = system: SF-268 CNS
SF-295 CNS = system: SF-295 CNS
SF-539 CNS = system: SF-539 CNS
SK-MEL-2 melanoma = system: SK-MEL-2 melanoma
SK-MEL-28 melanoma = system: SK-MEL-28 melanoma
SK-MEL-5 melanoma = system: SK-MEL-5 melanoma
SK-OV-3 ovarian = system: SK-OV-3 ovarian
SN12C renal = system: SN12C renal
SNB-19 CNS = system: SNB-19 CNS
SNB-75 CNS = system: SNB-75 CNS
SR leukemia = system: SR leukemia
SW-620 colon = system: SW-620 colon
T-47D breast = system: T-47D breast
TK-10 renal = system: TK-10 renal
U251 CNS = system: U251 CNS
UACC-257 melanoma = system: UACC-257 melanoma
UACC-62 melanoma = system: UACC-62 melanoma
UO-31 renal = system: UO-31 renal

Cc1cccc(CN(C)c2ccc(CO)c(Cl)c2)c1
GI50 (NCI-H23 lung): 14.6 µM
TGI (NCI-H23 lung): > 73.1 µM
GI50 (NCI-H460 lung): 2.04 µM
TGI (NCI-H460 lung): 15.8 µM
GI50 (NCI-H522 lung): 17.6 µM
TGI (NCI-H522 lung): 57.8 µM
GI50 (NCI/ADR-RES ovarian): 17.2 µM
TGI (NCI/ADR-RES ovarian): 59.3 µM
GI50 (OVCAR-3 ovarian): 4.2 µM
TGI (OVCAR-3 ovarian): 17 µM
GI50 (OVCAR-4 ovarian): 2.61 µM
TGI (OVCAR-4 ovarian): 25.3 µM
GI50 (OVCAR-5 ovarian): 0.881 µM
TGI (OVCAR-5 ovarian): 4.87 µM
GI50 (OVCAR-8 ovarian): 16.1 µM
TGI (OVCAR-8 ovarian): > 79.5 µM
GI50 (PC-3 prostate): 22.2 µM
TGI (PC-3 prostate): 96.3 µM
GI50 (RPMI-8226 leukemia): 14.4 µM
TGI (RPMI-8226 leukemia): > 69.3 µM
GI50 (RXF 393 renal): 9.52 µM
TGI (RXF 393 renal): 27.8 µM
GI50 (SF-268 CNS): 33.7 µM
TGI (SF-268 CNS): > 100 µM
GI50 (SF-295 CNS): 4.87 µM
TGI (SF-295 CNS): 46.8 µM
GI50 (SF-539 CNS): 26.8 µM
TGI (SF-539 CNS): > 77.3 µM
GI50 (SK-MEL-2 melanoma): 8.54 µM
TGI (SK-MEL-2 melanoma): 36 µM
GI50 (SK-MEL-28 melanoma): 19.3 µM
TGI (SK-MEL-28 melanoma): > 76.1 µM
GI50 (SK-MEL-5 melanoma): 9.47 µM
TGI (SK-MEL-5 melanoma): 22.3 µM
GI50 (SK-OV-3 ovarian): 12.6 µM
TGI (SK-OV-3 ovarian): 46.8 µM
GI50 (SN12C renal): 15 µM
TGI (SN12C renal): 48.9 µM
GI50 (SNB-19 CNS): 28.4 µM
TGI (SNB-19 CNS): > 100 µM
GI50 (SNB-75 CNS): 18.8 µM
TGI (SNB-75 CNS): 80 µM
GI50 (SR leukemia): 24.7 µM
TGI (SR leukemia): > 73.8 µM
GI50 (SW-620 colon): 7.18 µM
TGI (SW-620 colon): > 100 µM
GI50 (T-47D breast): 1.04 µM
TGI (T-47D breast): 7.66 µM
GI50 (TK-10 renal): 0.267 µM
TGI (TK-10 renal): 1.56 µM
GI50 (U251 CNS): 5.07 µM
TGI (U251 CNS): 43.6 µM
GI50 (UACC-257 melanoma): 0.565 µM
TGI (UACC-257 melanoma): 2.22 µM
GI50 (UACC-62 melanoma): 0.301 µM
TGI (UACC-62 melanoma): 2.96 µM
GI50 (UO-31 renal): 11.9 µM
TGI (UO-31 renal): 64.3 µM
